Patent US12419857B2, “Oral topiramate suspension formulations with extended shelf stability and enhanced bioavailability” (Rosemont Pharmaceuticals Limited, priority 2018, dated 2025)
Converted amounts (≈) assume the structure as drawn. Like-named read-outs stand apart in the source and are kept apart here.

Columns and labels:
[1] = Dissolution testing (paddles 58 RPM) at three pH levels vs TOPAMAX 200 mg Tablets; assay type: physicochemical; details: once the suspension matrix has degraded
Method: Two issues were observed during the dissolution testing of the oral topiramate suspension: (i) the suspension produces very poor inter-vessel reproducibility with very large error values up until near dissolution completion and (ii) when comparing the reference tablet formulation with the suspensions very poor comparison is seen as the tablets tend to complete dissolution at a much faster rate. It was determined that both of these issues are caused by the physiochemical characteristics of the topiramate suspension vehicle and the release of the active ingredient from the suspension matrix. Once the suspension matrix is broken down, the topiramate becomes readily bioavailable. […] Changes in the physical nature of the product can also be detected with this novel testing approach.
Process validation batches were manufactured using the final production equipment and facility to cGMP and compared to a reference product (TOPAMAX® 200 mg Tablets) using dissolution (paddles 58 RPM) at three pH levels (i.e., 1.2, 4.5 and 6.8). FIG. 7. […] Thus, data support the claim that the disclosed 10 mg/ml and 20 mg/ml oral liquid topiramate suspension products are bioequivalent to the reference product TOPAMAX® 200 mg tablets (Janssen Cilag, Ltd.).

[2] = acetone, chloroform, dimethylsulfoxide, ethanol; cited from earlier work
[3] = Solubility of topiramate in water and non-aqueous reagents; assay type: physicochemical; details: for solubility: water
Description: The present application discloses the first example of an aqueous suspension of topiramate with extended physicochemical stability and therapeutic bioavailability equivalent to that of commercially approved solid dose formulations. […] See, Physician's Desk Reference, 56th ed., pp. 2590-2595 (2002). Topiramate may be produced according to the processes disclosed in U.S. Pat. Nos. 4,513,006 and 5,387,700, the entire contents of which are herein incorporated by reference. Topiramate is sold in the United States under the trade name TOPAMAX® (Ortho-McNeil Pharmaceutical, Inc., Raritan, N.J., U.S.A). TOPAMAX® has been approved for use as an antiepileptic agent as an adjuvant therapy for patients with partial onset seizures, or primary generalized tonic-clonic seizures. See generally, Physician's Desk Reference, 56th ed., 2590-2595 (2002); see also, U.S. Pat. No. 4,513,006.
For drugs with low solubility and/or bioavailability at physiological pH and temperature, efforts to develop suspension formulations are often met with varying rates of success due to restrictive physiochemical parameters of the API and/or excipients. For example, while simply increasing the volume of diluent for low-solubility drugs may improve solubility, the large volume of diluent is often prohibitive from a patient perspective.
From a purely chemical perspective, topiramate is highly sensitive to heat (e.g., room temperature) and humidity (e.g., aqueous environment of liquid formulations). For example, abandoned U.S. Pat. App. No. 2006/0270611 discloses that topiramate is highly sensitive to hydrolysis in an aqueous medium and that any conventional aqueous oral solution would have a very limited shelf life. The chemical instability of topiramate is so well known, that pharmacists routinely monitor topiramate degradation by a change in physical appearance (e.g., tablet color changing from white to brown) and by an emergence of chemical breakdown byproducts (e.g., formation of sulfamate and sulphate ions and organic degradation compounds readily detected by HPLC). […]

BCS class [1]: BCS Class I or III | solubility ([3]; purified water, 25 °C, 25 degrees Celsius, read-out: observed solubility in purified water): 8300 µg/mL (≈ 24.5 mM) | pH of maximum aqueous solubility ([3]; strongly alkaline solutions): ~9.5 pH | solubility ([3]; 5 °C, 5 degrees Celsius, read-out: observed solubility in water): 6400 µg/mL (≈ 18.9 mM)
Structure (SMILES): CC1(C)O[C@@H]2[C@@H](CO[C@@]3(COS(N)(=O)=O)OC(C)(C)O[C@@H]23)O1 [topiramate, 2,3:4,5-Bis-O-(1-methylethylidene)- -D-fructopyranose sulfamate]
solubility in non-aqueous reagents [2]: freely soluble
